Read-outs that look alike come from different tables or passages of the source. Strand notation (5' to 3'): a small letter for the sugar, then the base; units joined by * are phosphorothioate-linked, units joined directly phosphodiester-linked; [ ] holds rarer units or linkages, { } end groups; capitals alone tell only the bases. r = 2'-OH (RNA)
Columns and labels:
[1] = target: recombinant HIV-1 RT, ref RT (HIV type B, clone BH 10) (Human immunodeficiency virus type 1 group M subtype B, UniProt P03366); conditions: read-out: Inhibition of binding to primer (BIC50), immobilised primer, binding 90 min at 33° C.
Experimental: (§1) (iii) Protocol for RT binding inhibition (BIC) assay: The study was performed in a modified DNA polymerase assay. The inhibitors were serially diluted in five steps, enzyme dilution was added and the enzyme/inhibitor mixtures were incubated for 30 minutes at 33° C. Aliquots of the enzyme/inhibitor mixture were transferred to each well of a microtiter plate containing either immobilised primer, or primer/template. The enzyme was allowed to bind to the immobilised polymer for 90 min at 33° C. The amount of RT used was standardised to an activity corresponding to 40-60 pg (3.3-5.0×10^−16 mol) reference HIV-1 RT per well. The plates were then washed to remove unbound enzyme whereupon the amount of bound enzyme was determined by addition of the appropriate reaction solution for polymerisation (i e a reaction solution devoid of primer for studies of primer binding and a reaction solution devoid of both primer and template for studies of binding to primed template). The polymerase reaction was allowed to proceed for 3 hours at 33° C., whereupon the reaction was terminated by a wash of the plate.
(§2) The capacity of the indicated substances to inhibit the binding to primer or to primed DNA template of a panel of recombinant HIV 1 subtype B RTs was studied according to “Protocol for RT binding inhibition (BIC) assay” (protocol (iii) above).

[2] = target: T1, recombinant HIV-1 RT K103N/E478Q (Human immunodeficiency virus type 1 group M subtype B, UniProt P03366, E1077Q/K702N); conditions: binding 90 min at 33° C.
T1 construct: performed by recombinant HIV-1 RT:s with defined
Experimental: as §1, §2

[3] = test system: Mut1 (RNase H inactive mutant of HIV-1 RT); assay: Gel mobility shifts in native polyacrylamide gel electrophoresis (PAGE); format: binding; conditions: native 20% PAGE; ammonium sulphate up to […]
Description: In the following experiment, the terms “34-mer” and “35-mer” refer to SEQ ID NO:3 (produced in example A1 above) and SEQ ID NO:4 (produced in example A2 above), respectively. […] Natural RT molecules have an RNase H activity which normally cleaves RNA molecules. […] This mutant is produced according to the method given in Schatz, O., Cromme, F. V., Grüninger-Leitch, F. and Le Grice, S. F. J., Febs Letter. Vol.257, No.2 p.311-314. This RT-mutant is further on referred to as Mut1. The following experiments are carried out:
2. Gel mobility shifts in polyacrylamide gel electrophoresis (PAGE) experiments.
a) Native 20% PAGE gel is run at 4-5° C. Samples are incubated at 4° C. in 50 mM hepes buffer and 5 mM magnesium chloride and varying salt concentrations as indicated below.
Samples are incubated for 90 min at 4° C. prior to a further 10 min incubation at 4° C. with ammonium sulphate and/or KCl. Samples applied to lanes 4 and 5 have twice the amount of 34-mer used for the other samples.
b) Native 20% PAGE gel run at 4-5° C. Samples are incubated at 4° C. in 50 mM hepes buffer and 5 mM magnesium chloride, with varying concentrations of ammonium sulphate.
Native 20% PAGE gel is run at 4-5° C. Samples are incubated at 4° C. in 50 mM hepes buffer, 15 mM manganese sulphate, 1 mM EDTA and 0.25 mM EGTA.
Samples are incubated 10 min at room temperature prior to a 60 min incubation at 4° C. One μl of sample solution is applied per lane. Electrophoresis is conducted with up to 400 volts while cooling to approximately 4° C. After 0.209 kWh the gel is silver stained.

## substance 198: 15-mer RNA phosphorothioate with the base sequence of tRNALys3 anticodon stem and loop, SEQ ID NO:7 (rC*rA*rG*rA*rC*rU*rU*rU*rU*rA*rA*rU*rC*rU*rG) [reference compound]
[1]
  IC50: 100 nM
[2]; immobilised primer, read-out: Inhibition of binding to primer (BIC50)
  IC50: 400 nM
[2]; immobilised primer/template, read-out: Inhibition of binding to template/primer (BIC50)
  IC50: 1000 nM
[3]
  Complex with Mut1 at high salt concentrations: dissociates from Mut1

— patent US20040053872A1, “New sequences” (priority 2000, published 2004)
